Like-named read-outs stand apart in the source and are kept apart here.
Key:
xanthine oxidase (XO) = biological target: T1, xanthine oxidase (XO) (Bos taurus, UniProt P80457); test: Assay of XO-inhibitory activity and kinetics (oxidation of xanthine to uric acid, absorbance at 295 nm); assay type: biochemical, bovine milk; conditions: for Xanthine Oxidase Kinetic Mode / Ki: Lineweaver–Burk and Dixon plots; for inhibition at 25 µM: read-out: Xanthine Oxidase Inhibition %; for Ki: read-out: Xanthine Oxidase Ki (inhibition constant); for IC50: isolated compounds and positive controls, substrate xanthine, pH 7.5, 37 °C
T1 construct: 20 µL of 0.1 unit XO enzyme (bovine milk) in buffer; from tissue; host or cells: bovine milk
Experimental: The extracts from four different polar solvents (EtOAc, MeOH, 50% MeOH, and H2O) were tested for their enzyme-inhibitory activities against XO. The enzyme assay followed the oxidation of xanthine to uric acid at 295 nm spectrophotometrically. […] In addition to ^13C-NMR data, various spectroscopic data were used to identify the structures. […]
XO-inhibitory activity was assayed spectrophotometrically on a SpectraMax M2 microplate reader, using a previously reported experimental procedure with a slight modification. First, 135 µL of 100 mM sodium pyrophosphate buffer (HCl, pH 7.5), 20 µL of 0.1 unit XO enzyme (bovine milk) in buffer, and 5 µL of samples (test extracts or compounds) in dimethylsulfoxide were mixed at 37 °C. The reaction was started by adding 40 µL of substrate (0.5 mM xanthine) in buffer to the mixture. The reaction mixture (200 µL) was incubated at 37 °C in a 300 µL well plate and the UV absorbance at 295 nm was determined every 1 min up to 5 min.

T1 sequence (P80457 whole entry): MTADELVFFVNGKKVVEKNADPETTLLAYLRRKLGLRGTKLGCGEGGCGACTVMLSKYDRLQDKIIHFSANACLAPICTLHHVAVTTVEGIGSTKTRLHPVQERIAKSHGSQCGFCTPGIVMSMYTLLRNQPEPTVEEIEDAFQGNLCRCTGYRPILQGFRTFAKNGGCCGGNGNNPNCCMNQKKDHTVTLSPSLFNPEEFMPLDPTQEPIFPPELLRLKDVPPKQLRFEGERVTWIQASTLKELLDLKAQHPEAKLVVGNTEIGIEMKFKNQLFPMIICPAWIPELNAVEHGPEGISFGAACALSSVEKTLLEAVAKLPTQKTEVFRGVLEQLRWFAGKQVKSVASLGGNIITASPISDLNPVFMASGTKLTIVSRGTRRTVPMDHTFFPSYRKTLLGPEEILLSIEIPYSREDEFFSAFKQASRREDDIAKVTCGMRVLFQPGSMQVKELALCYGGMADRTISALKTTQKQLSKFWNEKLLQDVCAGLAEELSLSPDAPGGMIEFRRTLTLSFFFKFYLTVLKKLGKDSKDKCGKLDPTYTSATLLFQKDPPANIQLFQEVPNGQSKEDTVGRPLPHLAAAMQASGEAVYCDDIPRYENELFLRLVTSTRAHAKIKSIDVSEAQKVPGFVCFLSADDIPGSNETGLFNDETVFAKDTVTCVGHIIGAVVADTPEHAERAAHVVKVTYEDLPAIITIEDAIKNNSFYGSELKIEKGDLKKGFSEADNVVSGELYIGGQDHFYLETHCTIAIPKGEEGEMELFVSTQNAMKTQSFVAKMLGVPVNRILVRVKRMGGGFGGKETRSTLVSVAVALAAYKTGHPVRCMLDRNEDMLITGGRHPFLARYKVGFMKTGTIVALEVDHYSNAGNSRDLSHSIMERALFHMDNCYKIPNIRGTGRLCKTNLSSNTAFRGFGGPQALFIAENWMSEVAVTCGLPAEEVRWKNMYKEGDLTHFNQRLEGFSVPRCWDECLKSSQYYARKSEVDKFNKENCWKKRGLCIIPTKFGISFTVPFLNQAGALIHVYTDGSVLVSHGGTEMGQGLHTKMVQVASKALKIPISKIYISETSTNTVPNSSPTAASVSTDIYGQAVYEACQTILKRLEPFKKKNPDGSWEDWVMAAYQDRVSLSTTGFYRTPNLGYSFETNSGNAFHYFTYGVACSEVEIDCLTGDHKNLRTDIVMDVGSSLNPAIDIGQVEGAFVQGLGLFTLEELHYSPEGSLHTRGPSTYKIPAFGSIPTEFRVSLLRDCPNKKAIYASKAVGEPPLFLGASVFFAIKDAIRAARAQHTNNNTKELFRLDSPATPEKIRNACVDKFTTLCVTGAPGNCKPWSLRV

Row | Xanthine Oxidase Kinetic Mode (xanthine oxidase (XO)) | Ki (xanthine oxidase (XO)) [µM] | efficacy of 1 relative to 4 (fold, from IC50) (xanthine oxidase (XO); XO inhibition, compared with 4 (IC50 = 20.9 µM)) [fold] | Reversibility of XO inhibition (xanthine oxidase (XO); activity versus enzyme concentration (0-0.2 units/mL) at different inhibitor concentrations) | IC50 (xanthine oxidase (XO)) [µM] | inhibition at 25 µM (xanthine oxidase (XO); sample concentration 25 µM) [%] | melting point [°C] | Compound | inhibition at 25 µM (xanthine oxidase (XO)) [%]
1 | noncompetitive inhibitor | 7.8 | ~4 | reversible inhibitor | 6.3 ± 0.4 | 79.6 ± 1.6 | – | CCC(=O)c1c(O)c(C)c(O)c(CC2=C(O)C(C)(C)C(O)=C(C(C)=O)C2=O)c1O [Compound 1, flavaspidic acid AP] | –
2 | Noncompetitive | 11.7 | – | – | 10.2 ± 0.5 | 68.1 ± 1.3 | 158 to 160 | CCCC(=O)c1c(O)c(C)c(O)c(CC2=C(O)C(C)(C)C(O)=C(C(C)=O)C2=O)c1O [Compound 2, flavaspidic acid AB] | –
3 | Noncompetitive | 15.3 | – | – | 13.2 ± 0.6 | 62.1 ± 0.9 | 156 to 158 | CCCC(=O)c1c(O)c(C)c(O)c(CC2=C(O)C(C)(C)C(O)=C(C(=O)CC)C2=O)c1O [Compound 3, flavaspidic acid PB] | –
4 | Noncompetitive | 21.1 | – | – | 20.9 ± 0.9 | 54.4 ± 1.5 | – | CCCC(=O)C1=C(O)C(C)(C)C(O)=C(Cc2c(O)c(C)c(O)c(C(=O)CCC)c2O)C1=O [Compound 4, 2-butyryl-6-(3-butyryl-2,4,6-trihydroxy-5-methylbenzyl)-3,5-dihydroxy-4,4-dimethylcyclohexa-2,5-dienone] | –
5 | – | – | – | – | 43.1 ± 0.8 | 42.2 ± 1.2 | – | O=c1[nH]c(=O)c2c[nH]nc2[nH]1 [Oxypurinol, reference compound] | –

Row | Compound | Xanthine Oxidase Kinetic Mode (xanthine oxidase (XO)) | Ki (xanthine oxidase (XO)) [µM] | efficacy of 1 relative to 4 (fold, from IC50) (xanthine oxidase (XO); XO inhibition, compared with 4 (IC50 = 20.9 µM)) [fold] | Reversibility of XO inhibition (xanthine oxidase (XO); activity versus enzyme concentration (0-0.2 units/mL) at different inhibitor concentrations) | IC50 (xanthine oxidase (XO)) [µM] | inhibition at 25 µM (xanthine oxidase (XO); sample concentration 25 µM) [%] | melting point [°C] | inhibition at 25 µM (xanthine oxidase (XO)) [%]
6 | Oc1ncnc2[nH]ncc12 [Allopurinol, reference compound] | Competitive | – | – | – | – | – | – | 82.5 ± 1.7

Source: PMC7796287, “Phloroglucinol Derivatives from Dryopteris crassirhizoma as Potent Xanthine Oxidase Inhibitors” (Molecules, 2020)
